Values joined by “and” are separate entries in the source; they are usually repeats but may differ in a detail not shown here. Equal entries are not always repeated. Where two headings read alike, the source gives them in different places. Starred links: 1 amine or outer side, 2 acyl side, 3 side chain; linkers in the order of their positions; H or OH if unused. Non-standard residues stand in square brackets, D forms with d. Residues, ends and D or L forms follow the SMILES beside them. Groups on a side chain read outwards from the residue. *: point of attachment. C18 diacid = O=C(O)CCCCCCCCCCCCCCCCC(=O)*; Dip = N[C@H](C(=O)O)C(c1ccccc1)c1ccccc1; γGlu = O=C(O)[C@H](CCC(=O)[*:2])N[*:1]; Stearoyl = CCCCCCCCCCCCCCCCCC(=O)*; αMeF = C[C@](N)(Cc1ccccc1)C(=O)O; Myristoyl = CCCCCCCCCCCCCC(=O)*; Nle = CCCC[C@H](N)C(=O)O; PEG2 = NCCOCCOCCC(=O)O; AEEA = NCCOCCOCC(=O)O; Aib = CC(C)(N)C(=O)O
What was measured:
[1] = target: human glucagon receptor (hGCGR) (Homo sapiens, UniProt P47871); experiment: cAMP production (HTRF) in CHO cells expressing hGCGR; format: cell-based; design: expressed in transfected cells; conditions: cAMP in CHO hGCGR cells, geometric mean, read-out: hGluc-R EC50
In short: (§1)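 Cells were resuspended in assay buffer at batch-optimized density, typically 1×10^5 cells/mL for hGLP-1R and 2×10^5 cells/mL for hGCGR. After 30 min incubation at room temperature with compound, cAMP was measured by two-step HTRF. EC50 values came from 4-parameter logistic fits of % Delta F.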

[2] = target: human GLP-1 receptor (hGLP-1R) (Homo sapiens, UniProt P43220); experiment: cAMP production (HTRF) in CHO cells expressing hGLP-1R; format: cell-based; design: expressed in transfected cells; conditions: for EC50: cAMP in CHO hGLP-1R cells, geometric mean, read-out: hGLP-1R EC50; for % Relative Potency Ratio: % GLP-1R activity relative to GLP-1 / % GlucR activity relative to glucagon
In short: as §1

[3] = test system: GLP-1R knockout (KO) mice; experiment: Glucose change in GLP-1R knockout mice; format: in vivo, mouse; conditions: GLP-1R KO mice, s.c.; for GLP-1R KO % glucose change 120 min: 120 min vs 0 min; for GLP-1R KO % glucose change - 60 min: 60 min vs 0 min
Experimental: (§2) They acclimated for a minimum of ˜1-2 weeks, and mice were sorted into groups (n=4-8/group) based on body weight. On day of study, mice were fasted briefly for 2 hrs prior to study start. In some studies, mice were pre-treated with octreotide (BaChem, 10 mg/kg) at 30 minutes prior to peptide injection. Glucose was measured via glucometer at various timepoints including-30 min (prior to octreotide when used in studies), 0 min (before peptide dose), 30, 60, 120, 180, 240, and 360 minutes. Since these studies are acute in nature, mice were re-used for multiple studies (no more than 3) and always allowed at least a minimum wash-out period of 1 week.

[4] = Mouse acute food intake study; format: in vivo; conditions: male C57Bl/6 mice, s.c., cumulative food intake at 24 hr vs vehicle
In short: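 Single-housed male C57Bl/6 mice (8-9 weeks on arrival), chow-fed, acclimated and sham-dosed ≥2 times, were fasted 6-8 h, then given vehicle or peptide subcutaneously at 5 mL/kg 1-2 h before lights out. Food intake was recorded automatically over 48 h and analysed as cumulative intake.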

wildtype (WT) mice = experiment: Glucose change in wildtype mice; format: in vivo, mouse; conditions: s.c.; for WT % glucose change 120 min: 120 min vs 0 min; for WT % glucose change 60 min: 60 min vs 0 min
Experimental: as §2, with “GLP-1R knockout (KO) and wildtype (WT) mice at 8-14 weeks of age were singly housed on standard chow diet (Envigo, 2918) and automatic water. They” for “They”

[5] = Table 6, peptides modified at position 17
[6] = 10 nmol/kg, somatostatin pretreatment (octreotide) 30 min prior to cpd
[7] = 30 nmol/kg, somatostatin pretreatment (octreotide) 30 min prior to cpd
[8] = 3 nmol/kg, no somatostatin pretreatment
[9] = 10 nmol/kg, no somatostatin pretreatment
[10] = 30 nmol/kg, no somatostatin pretreatment
[11] = Table 7, peptides modified at position 20

Chain of human GLP-1 receptor (hGLP-1R) (P43220 24-463): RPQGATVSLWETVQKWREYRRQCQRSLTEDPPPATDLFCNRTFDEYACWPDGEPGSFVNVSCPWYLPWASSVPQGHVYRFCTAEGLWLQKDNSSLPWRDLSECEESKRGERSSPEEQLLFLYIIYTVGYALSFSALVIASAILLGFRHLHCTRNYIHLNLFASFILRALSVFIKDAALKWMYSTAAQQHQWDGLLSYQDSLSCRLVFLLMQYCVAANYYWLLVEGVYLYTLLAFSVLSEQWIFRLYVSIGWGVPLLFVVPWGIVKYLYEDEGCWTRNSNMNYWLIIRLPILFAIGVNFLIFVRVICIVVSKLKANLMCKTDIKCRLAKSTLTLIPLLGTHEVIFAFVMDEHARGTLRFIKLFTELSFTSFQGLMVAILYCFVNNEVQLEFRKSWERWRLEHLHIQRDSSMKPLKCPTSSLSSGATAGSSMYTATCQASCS
Chain of human glucagon receptor (hGCGR) (P47871 26-477): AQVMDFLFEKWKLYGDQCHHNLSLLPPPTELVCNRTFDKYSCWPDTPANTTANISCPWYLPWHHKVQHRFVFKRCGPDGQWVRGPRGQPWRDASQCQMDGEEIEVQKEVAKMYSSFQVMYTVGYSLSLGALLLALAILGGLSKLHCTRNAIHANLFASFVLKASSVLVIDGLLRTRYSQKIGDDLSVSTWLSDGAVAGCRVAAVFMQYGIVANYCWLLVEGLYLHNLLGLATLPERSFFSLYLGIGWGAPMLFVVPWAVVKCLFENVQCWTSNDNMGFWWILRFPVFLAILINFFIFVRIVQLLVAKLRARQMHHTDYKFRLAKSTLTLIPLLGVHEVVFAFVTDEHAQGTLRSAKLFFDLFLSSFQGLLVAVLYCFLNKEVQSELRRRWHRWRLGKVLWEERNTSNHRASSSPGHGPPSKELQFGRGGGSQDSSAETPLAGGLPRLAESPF

Row | EC50 [1, 5] | EC50 [2, 5] | % Relative Potency Ratio ([2]; Table 6) | EC50 [1, 11] | EC50 [2, 11] | % Relative Potency Ratio ([2]; Table 7) | Compound | GLP-1R KO % glucose change 120 min [3, 6] | GLP-1R KO % glucose change 120 min [3, 7] | 24 hr % Vehicle Food Intake ([4]; dose 10 nmol/kg) | WT % glucose change 120 min (wildtype (WT) mice; [6]) | WT % glucose change 120 min (wildtype (WT) mice; [7]) | GLP-1R KO % glucose change 120 min [3, 8] | WT % glucose change 120 min (wildtype (WT) mice; [8]) | GLP-1R KO % glucose change - 60 min [3, 9] | GLP-1R KO % glucose change - 60 min [3, 10] | 24 hr % Vehicle Food Intake ([4]; dose 1 nmol/kg) | 24 hr % Vehicle Food Intake ([4]; dose 3 nmol/kg) | WT % glucose change 60 min (wildtype (WT) mice; [9]) | WT % glucose change 60 min (wildtype (WT) mice; [10])
1 |  |  | 11.1 |  |  |  | CCCCCCCCCCCCCCCCCC(=O)N[C@@H](CCC(=O)N[C@@H](CCC(=O)NCCOCCOCCC(=O)NCCOCCOCCC(=O)NCCCC[C@H](NC(=O)[C@H](CO)NC(=O)[C@H](CC(=O)O)NC(=O)[C@H](CC(C)C)NC(=O)[C@](C)(Cc1ccccc1)NC(=O)[C@H](CCCCN)NC(=O)[C@H](CO)NC(=O)[C@@H](NC(=O)[C@H](CC(=O)O)NC(=O)[C@H](CO)NC(=O)[C@@H](NC(=O)[C@H](Cc1ccccc1)NC(=O)[C@@H](NC(=O)CNC(=O)[C@H](CCC(N)=O)NC(=O)C(C)(C)NC(=O)[C@@H](N)Cc1c[nH]cn1)[C@@H](C)O)[C@@H](C)O)C(C)C)C(=O)N[C@@H](CCCNC(=N)N)C(=O)N[C@@H](C)C(=O)N[C@@H](CCC(N)=O)C(=O)N[C@@H](CC(=O)O)C(=O)N[C@@](C)(Cc1ccccc1)C(=O)N[C@H](C(=O)N[C@@H](CCC(N)=O)C(=O)NC(C)(C)C(=O)N[C@@H](CC(C)C)C(=O)N[C@@H](CCCC)C(=O)N[C@@H](CCC(=O)O)C(=O)N[C@H](C(N)=O)[C@@H](C)O)C(C)C)C(=O)O)C(=O)O [Peptide 69] (H-H[Aib]QGTFTSDVSK[αMeF]LDSK([PEG2-PEG2-γGlu-γGlu-Stearoyl])RAQD[αMeF]VQ[Aib]L[Nle]ET-NH2; N-terminus assumed) |  |  | 74.3% |  |  | 17.6% | −27.2% |  |  |  |  |  | 
2 | 13 pM | 1.05 pM | 24.3 |  |  |  | CCCCCCCCCCCCCCCCCC(=O)N[C@@H](CCC(=O)N[C@@H](CCC(=O)NCCOCCOCCC(=O)NCCOCCOCCC(=O)NCCCC[C@H](NC(=O)[C@H](CO)NC(=O)[C@H](CC(=O)O)NC(=O)[C@H](CC(C)C)NC(=O)C(C)(C)NC(=O)[C@H](CCCCN)NC(=O)[C@H](CO)NC(=O)[C@@H](NC(=O)[C@H](CC(=O)O)NC(=O)[C@H](CO)NC(=O)[C@@H](NC(=O)[C@](C)(Cc1ccccc1)NC(=O)[C@H](CO)NC(=O)CNC(=O)[C@H](CCC(N)=O)NC(=O)[C@H](CO)NC(=O)[C@@H](N)Cc1c[nH]cn1)[C@@H](C)O)C(C)C)C(=O)N[C@@H](C)C(=O)N[C@@H](C)C(=O)N[C@@H](CCC(N)=O)C(=O)N[C@@H](CC(=O)O)C(=O)N[C@@](C)(Cc1ccccc1)C(=O)N[C@H](C(=O)N[C@@H](CCC(N)=O)C(=O)NC(C)(C)C(=O)N[C@H](C(=O)N[C@@H](C)C(=O)N[C@@H](CC(N)=O)C(N)=O)[C@@H](C)CC)C(C)C)C(=O)O)C(=O)O [Peptide 97] (H-HSQGS[αMeF]TSDVSK[Aib]LDSK([PEG2-PEG2-γGlu-γGlu-Stearoyl])AAQD[αMeF]VQ[Aib]IAN-NH2; N-terminus assumed) | 91.1% | 150.8% |  | −41.9% | −14.7% |  |  |  |  |  |  |  | 

More lines, now with the values behind:

Row | Compound | EC50 [1, 5] | EC50 [2, 5] | % Relative Potency Ratio ([2]; Table 6) | EC50 [1, 11] | EC50 [2, 11] | % Relative Potency Ratio ([2]; Table 7) | GLP-1R KO % glucose change 120 min [3, 6] | GLP-1R KO % glucose change 120 min [3, 7] | 24 hr % Vehicle Food Intake ([4]; dose 10 nmol/kg) | WT % glucose change 120 min (wildtype (WT) mice; [6]) | WT % glucose change 120 min (wildtype (WT) mice; [7]) | GLP-1R KO % glucose change 120 min [3, 8] | WT % glucose change 120 min (wildtype (WT) mice; [8]) | GLP-1R KO % glucose change - 60 min [3, 9] | GLP-1R KO % glucose change - 60 min [3, 10] | 24 hr % Vehicle Food Intake ([4]; dose 1 nmol/kg) | 24 hr % Vehicle Food Intake ([4]; dose 3 nmol/kg) | WT % glucose change 60 min (wildtype (WT) mice; [9]) | WT % glucose change 60 min (wildtype (WT) mice; [10])
3 | CCCCCCCCCCCCCC(=O)N[C@@H](CCC(=O)N[C@@H](CCC(=O)NCCOCCOCCC(=O)NCCOCCOCCC(=O)NCCCC[C@H](NC(=O)[C@H](CO)NC(=O)[C@H](CC(=O)O)NC(=O)[C@H](CC(C)C)NC(=O)[C@@H](NC(=O)[C@H](CCCCN)NC(=O)[C@H](CO)NC(=O)[C@@H](NC(=O)[C@H](CC(=O)O)NC(=O)[C@H](CO)NC(=O)[C@@H](NC(=O)[C@](C)(Cc1ccccc1)NC(=O)[C@H](CO)NC(=O)CNC(=O)[C@H](CCC(N)=O)NC(=O)[C@H](CO)NC(=O)[C@@H](N)Cc1c[nH]cn1)[C@@H](C)O)C(C)C)C(c1ccccc1)c1ccccc1)C(=O)N[C@@H](C)C(=O)N[C@@H](C)C(=O)N[C@@H](CCC(N)=O)C(=O)N[C@@H](CC(=O)O)C(=O)N[C@@](C)(Cc1ccccc1)C(=O)N[C@H](C(=O)N[C@@H](CCC(=O)O)C(=O)NC(C)(C)C(=O)N[C@H](C(=O)N[C@H](C(=O)N[C@@H](CC(N)=O)C(=O)N[C@H](C(N)=O)[C@@H](C)O)[C@@H](C)CC)[C@@H](C)CC)C(C)C)C(=O)O)C(=O)O [Peptide 63] (H-HSQGS[αMeF]TSDVSK[Dip]LDSK([PEG2-PEG2-γGlu-γGlu-Myristoyl])AAQD[αMeF]VE[Aib]IINT-NH2; N-terminus assumed) | 2.49 pM | 3.14 pM | 1.6 |  |  |  | 68.2% | 113.0% | 37.9% | −26.4% | −23.8% |  |  |  |  |  |  |  | 
4 | CC(C)C[C@H](NC(=O)[C@H](Cc1c[nH]c2ccccc12)NC(=O)[C@H](CCC(N)=O)NC(=O)[C@@H](NC(=O)[C@H](Cc1ccccc1)NC(=O)[C@H](CC(=O)O)NC(=O)[C@H](CCCNC(=N)N)NC(=O)[C@H](C)NC(=O)[C@H](CCCNC(=N)N)NC(=O)[C@H](CCCCNC(=O)COCCOCCNC(=O)COCCOCCNC(=O)CC[C@H](NC(=O)CCCCCCCCCCCCCCCCCCC(=O)O)C(=O)O)NC(=O)[C@@H](NC(=O)[C@H](CC(=O)O)NC(=O)[C@H](CC(C)C)NC(=O)[C@](C)(Cc1ccccc1)NC(=O)[C@H](CCCCN)NC(=O)[C@H](CO)NC(=O)[C@@H](NC(=O)[C@H](CC(=O)O)NC(=O)[C@H](CO)NC(=O)[C@@H](NC(=O)[C@H](Cc1ccccc1)NC(=O)[C@@H](NC(=O)CNC(=O)[C@H](CCC(N)=O)NC(=O)C(C)(C)NC(=O)[C@@H](N)Cc1c[nH]cn1)[C@@H](C)O)[C@@H](C)O)C(C)C)[C@@H](C)O)C(C)C)C(=O)N[C@@H](CC(C)C)C(=O)N[C@@H](CCC(=O)O)C(=O)NC(C)(C)C(=O)NCC(=O)O [Peptide 195, H-Aib-Q-G-T-F-T-S-D-V—S-K-αMePhe-L-D-T-K-R-A-R-D-F-V-Q-W-L-L-E-Aib-G-acid] |  |  |  |  |  |  |  |  | 58.2% and 49.9% |  |  |  |  | 35.3% | 48.0% | 102.1% | 84.0% | 1.4% | −17.0%
5 | CC[C@H](C)[C@H](NC(=O)[C@H](Cc1c[nH]c2ccccc12)NC(=O)[C@H](CCC(N)=O)NC(=O)[C@@H](NC(=O)[C@H](Cc1ccccc1)NC(=O)[C@H](CC(=O)O)NC(=O)[C@H](CCCCNC(=O)COCCOCCNC(=O)COCCOCCNC(=O)CC[C@H](NC(=O)CCCCCCCCCCCCCCCCC(=O)O)C(=O)O)NC(=O)[C@H](C)NC(=O)[C@H](C)NC(=O)[C@H](CCC(N)=O)NC(=O)[C@H](CO)NC(=O)[C@H](CC(=O)O)NC(=O)[C@H](CC(C)C)NC(=O)[C@](C)(Cc1ccccc1)NC(=O)[C@H](CCCCN)NC(=O)[C@H](CO)NC(=O)[C@@H](NC(=O)[C@H](CC(=O)O)NC(=O)[C@H](CO)NC(=O)[C@@H](NC(=O)[C@](C)(Cc1ccccc1)NC(=O)[C@H](CO)NC(=O)CNC(=O)[C@H](Cc1c[nH]cn1)NC(=O)C(C)(C)NC(=O)[C@@H](N)Cc1c[nH]cn1)[C@@H](C)O)C(C)C)C(C)C)C(=O)N[C@@H](C)C(=O)N[C@@H](CC(N)=O)C(=O)N[C@H](C(N)=O)[C@@H](C)O [Peptide 203] (H-H[Aib]HGS[αMeF]TSDVSK[αMeF]LDSQAAK([AEEA-AEEA-γGlu-C18 diacid])DFVQWIANT-NH2; N-terminus assumed) |  |  |  | 34.1 pM | 77.5 pM | 0.9 | 54.6% | 106.9% | 81.4% | −29.5% | −36.5% |  |  |  |  |  |  |  | 
